This passage reports EC50, IC50 and AC50 results from ChEMBL document CHEMBL1201862, “PubChem BioAssay data set” (2004).

Each structure is given as a SMILES string. Active and inactive are the calls of the source. Some results are limits rather than exact numbers.

Assay [1] is described as follows: cytotoxicity in HPDE-C7 cells, cell-based, fluorescence, HTS (AID 430). It is filed as functional. The conditions noted are these: Homo sapiens.
Assay [2] is described as follows: inhibitors of intracellular T. cruzi replication, confirmation, NIH3T3 host cells, beta-gal luminescence (AID 2044).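 Note: intracellular parasites grown in NIH/3T3 mouse fibroblasts as host cells; luminescent beta-galactosidase reporter signal from transgenic T. cruzi replicating inside host cells; inhibitors lower the luminescence signal.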 It is filed as functional, cell-based.
Assay [3] in a line: cytotoxicity in KRAS-transformed pancreatic duct cells, primary screen, cell-based, fluorescence, HTS (AID 431).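 Note: cell line used: HPDE-C7K.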 It is filed as functional. The conditions noted are these: Homo sapiens.
The nature of assay [4]: cytotoxicity toward NIH3T3 fibroblasts, dose response, counter-screen, cell-based, ATP luminescence, mouse fibroblasts (AID 2010).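 Note: cells exposed to compound for about 90 hours before reading.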 It is filed as functional. On the technique in general: Counterscreens check selectivity or assay interference.
For a further assay, the target named is T1, Aminopeptidase N (Plasmodium falciparum FcB1/Columbia, UniProt O96935).
T1 sequence (O96935 whole entry): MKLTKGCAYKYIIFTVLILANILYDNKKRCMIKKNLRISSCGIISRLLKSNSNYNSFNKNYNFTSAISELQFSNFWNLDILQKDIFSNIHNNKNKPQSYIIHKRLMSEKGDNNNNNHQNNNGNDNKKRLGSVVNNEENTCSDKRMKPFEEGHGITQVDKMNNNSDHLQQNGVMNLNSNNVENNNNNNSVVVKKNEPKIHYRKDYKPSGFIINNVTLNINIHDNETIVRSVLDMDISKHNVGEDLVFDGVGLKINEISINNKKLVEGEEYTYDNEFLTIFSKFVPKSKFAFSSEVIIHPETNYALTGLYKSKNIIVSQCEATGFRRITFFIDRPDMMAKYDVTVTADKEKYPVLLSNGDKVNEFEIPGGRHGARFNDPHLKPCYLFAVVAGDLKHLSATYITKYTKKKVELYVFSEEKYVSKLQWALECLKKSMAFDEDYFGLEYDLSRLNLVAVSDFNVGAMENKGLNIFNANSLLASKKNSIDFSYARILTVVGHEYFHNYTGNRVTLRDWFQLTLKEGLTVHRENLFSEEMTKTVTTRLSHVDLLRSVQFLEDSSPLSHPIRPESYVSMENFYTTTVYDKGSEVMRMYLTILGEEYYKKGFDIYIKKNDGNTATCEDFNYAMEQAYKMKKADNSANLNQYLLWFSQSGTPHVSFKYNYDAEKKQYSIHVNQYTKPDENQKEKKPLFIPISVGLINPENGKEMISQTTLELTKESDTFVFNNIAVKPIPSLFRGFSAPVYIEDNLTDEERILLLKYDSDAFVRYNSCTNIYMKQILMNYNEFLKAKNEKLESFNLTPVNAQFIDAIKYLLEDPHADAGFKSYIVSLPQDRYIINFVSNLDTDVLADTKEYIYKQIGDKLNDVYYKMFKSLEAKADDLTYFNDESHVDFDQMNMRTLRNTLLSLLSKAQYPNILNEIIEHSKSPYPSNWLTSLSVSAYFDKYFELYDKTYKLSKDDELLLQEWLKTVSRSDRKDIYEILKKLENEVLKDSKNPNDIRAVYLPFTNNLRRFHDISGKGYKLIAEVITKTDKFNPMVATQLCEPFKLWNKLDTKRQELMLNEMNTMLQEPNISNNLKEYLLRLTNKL
Nature of the assay: P. falciparum M1AAP inhibitors, biochemical, fluorogenic H-Leu-NHMec substrate, 1536-well (AID 1445). More on the design: species or system Plasmodium falciparum 3D7, 3D7.

Assay [5] in a line: inhibitors of Vif binding to APOBEC3G peptide, primary screen, biochemical, TR-FRET, GST-Vif 1-94, biotin-A3G peptide, dose response retest (AID 1117319).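 Note: TR-FRET signal of purified GST-Vif binding a biotinylated A3G peptide; inhibitors lower the FRET signal by blocking Vif and A3G binding.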 It is filed as functional.
A further assay addresses T2, Protein skinhead-1 (Caenorhabditis elegans, UniProt P34707).
T2 sequence (P34707 whole entry): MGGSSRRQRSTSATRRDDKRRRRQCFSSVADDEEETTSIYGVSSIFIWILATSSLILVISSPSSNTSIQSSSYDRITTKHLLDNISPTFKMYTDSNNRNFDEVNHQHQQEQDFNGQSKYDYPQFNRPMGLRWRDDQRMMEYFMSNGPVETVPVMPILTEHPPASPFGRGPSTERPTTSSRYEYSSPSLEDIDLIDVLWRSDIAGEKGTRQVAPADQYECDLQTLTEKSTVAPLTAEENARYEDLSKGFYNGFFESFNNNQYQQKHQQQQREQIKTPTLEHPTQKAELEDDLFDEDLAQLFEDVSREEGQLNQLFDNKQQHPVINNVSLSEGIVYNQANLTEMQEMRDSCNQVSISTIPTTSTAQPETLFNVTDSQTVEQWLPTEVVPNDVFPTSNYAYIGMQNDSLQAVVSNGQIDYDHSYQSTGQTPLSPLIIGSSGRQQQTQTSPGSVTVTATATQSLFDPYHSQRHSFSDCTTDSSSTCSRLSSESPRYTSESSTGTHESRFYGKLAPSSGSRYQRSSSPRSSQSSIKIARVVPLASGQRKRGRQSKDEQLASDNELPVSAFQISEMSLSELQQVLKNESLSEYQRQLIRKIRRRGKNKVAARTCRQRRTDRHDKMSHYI
It is filed as functional.

In the next assay the target is T3, Leucine aminopeptidase (Plasmodium falciparum 3D7, UniProt Q8IL11).
T3 sequence (Q8IL11 whole entry): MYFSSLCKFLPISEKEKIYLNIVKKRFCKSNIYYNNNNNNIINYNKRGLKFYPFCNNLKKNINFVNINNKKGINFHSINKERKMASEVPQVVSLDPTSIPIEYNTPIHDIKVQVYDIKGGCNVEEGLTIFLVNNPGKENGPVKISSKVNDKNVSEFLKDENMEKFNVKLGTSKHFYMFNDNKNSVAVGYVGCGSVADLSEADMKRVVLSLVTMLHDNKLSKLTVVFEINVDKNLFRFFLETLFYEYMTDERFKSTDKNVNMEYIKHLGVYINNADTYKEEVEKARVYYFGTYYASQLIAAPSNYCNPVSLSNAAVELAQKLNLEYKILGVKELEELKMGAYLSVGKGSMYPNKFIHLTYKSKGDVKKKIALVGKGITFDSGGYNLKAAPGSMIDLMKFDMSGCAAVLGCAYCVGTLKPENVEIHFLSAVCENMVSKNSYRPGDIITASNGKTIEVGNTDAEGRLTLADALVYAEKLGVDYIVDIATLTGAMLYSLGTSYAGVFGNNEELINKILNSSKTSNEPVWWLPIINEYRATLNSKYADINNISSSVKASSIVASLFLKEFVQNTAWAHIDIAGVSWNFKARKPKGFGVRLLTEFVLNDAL
Nature of the assay: P. falciparum M17LAP inhibitors, primary screen, biochemical, fluorogenic H-Leu-NHMec substrate, 1536-well (AID 1619). It is filed as functional.

For assay [6], the system named is Streptococcus sp. 'group A'. Nature of the assay: growth inhibition of control SK(-) GAS strain, dose response, counter-screen for streptokinase expression inhibitor project, luminescence, kanamycin, BacTiterGlo, confirmation (AID 1900). It is filed as functional, organism-based.
The target in a further assay is T4, Streptokinase A (Streptococcus pyogenes serotype M1, UniProt P10520).
T4 sequence (P10520 whole entry): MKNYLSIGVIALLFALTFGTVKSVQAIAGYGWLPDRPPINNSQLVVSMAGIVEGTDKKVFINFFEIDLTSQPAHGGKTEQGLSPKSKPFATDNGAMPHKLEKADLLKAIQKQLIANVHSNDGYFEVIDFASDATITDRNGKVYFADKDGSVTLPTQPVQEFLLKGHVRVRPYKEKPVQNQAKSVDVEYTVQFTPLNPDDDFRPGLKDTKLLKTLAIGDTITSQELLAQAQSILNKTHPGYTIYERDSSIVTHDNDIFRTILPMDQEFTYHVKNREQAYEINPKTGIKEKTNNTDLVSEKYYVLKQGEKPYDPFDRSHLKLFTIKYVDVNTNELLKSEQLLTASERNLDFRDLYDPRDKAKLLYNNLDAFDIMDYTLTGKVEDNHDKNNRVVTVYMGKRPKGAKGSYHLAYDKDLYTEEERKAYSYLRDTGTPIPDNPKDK
Nature of the assay: S. pyogenes streptokinase expression inhibitors, potency, dose response, plasminogen activation absorbance, OD405 (AID 1914).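 Note: secreted streptokinase activity via plasminogen activation per viability signal from cell pellet.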 It is filed as functional, Streptococcus pyogenes M1 GAS.

For the next assay, the system named is Streptococcus. Nature of the assay: Group A Streptococcus viability loss, dose response, counter-screen for streptokinase expression inhibitor project, luminescence, BacTiterGlo (AID 1915).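 Note: potency for reduction of bacterial viability or growth.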 It is filed as functional, organism-based.
The nature of assay [7]: Luminescence Cell-Based Dose Retest to Confirm Inhibitors of Cancer Stem Cells. [Related pubchem assays (depositor defined):AID2717, AID2721]. The settings on record: Homo sapiens. It is filed as functional, Homo sapiens.
Assay [8] concerns the target Peroxisome proliferator-activated receptor gamma/Nuclear receptor coactivator 2 (Homo sapiens, UniProt P37231). It is filed as functional.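 Note: agonist potency for raising coactivator recruitment to the receptor.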
Assay [9] addresses Peroxisome proliferator-activated receptor gamma/Nuclear receptor coactivator 1 (Homo sapiens, UniProt P37231). It is filed as functional.
Assay [10] has as its target Peroxisome proliferator-activated receptor gamma/Nuclear receptor coactivator 3 (Homo sapiens, UniProt P37231). It is filed as functional.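 Note: agonist potency for raising coactivator recruitment to the receptor.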
For assay [11], the target named is T5, Calpain-2 catalytic subunit (Sus scrofa, UniProt P43367).
T5 sequence (P43367 whole entry): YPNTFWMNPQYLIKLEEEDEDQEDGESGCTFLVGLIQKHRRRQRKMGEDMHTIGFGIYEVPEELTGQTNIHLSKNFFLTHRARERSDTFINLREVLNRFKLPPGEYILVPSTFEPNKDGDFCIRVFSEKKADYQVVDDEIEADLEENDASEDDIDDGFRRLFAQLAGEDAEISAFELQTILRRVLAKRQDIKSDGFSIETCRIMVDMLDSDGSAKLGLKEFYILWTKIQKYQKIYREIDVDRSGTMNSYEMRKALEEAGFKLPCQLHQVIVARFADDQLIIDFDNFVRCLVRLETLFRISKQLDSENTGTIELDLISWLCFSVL
Nature of the assay: pig calpain II inhibitor potency, dose response, biochemical, fluorogenic peptide substrate (AID 1420). It is filed as functional.

The next assay relates to H9c2. Nature of the assay: cells. The conditions noted are these: Rattus norvegicus, H9c2, Myocardium. It is filed as functional, cell-based.
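Throughout, for AC50: cells exposed to compound for roughly 70 hours or longer before luminescence read.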

Sequence of Peroxisome proliferator-activated receptor gamma/Nuclear receptor coactivator 1 (P37231 whole entry): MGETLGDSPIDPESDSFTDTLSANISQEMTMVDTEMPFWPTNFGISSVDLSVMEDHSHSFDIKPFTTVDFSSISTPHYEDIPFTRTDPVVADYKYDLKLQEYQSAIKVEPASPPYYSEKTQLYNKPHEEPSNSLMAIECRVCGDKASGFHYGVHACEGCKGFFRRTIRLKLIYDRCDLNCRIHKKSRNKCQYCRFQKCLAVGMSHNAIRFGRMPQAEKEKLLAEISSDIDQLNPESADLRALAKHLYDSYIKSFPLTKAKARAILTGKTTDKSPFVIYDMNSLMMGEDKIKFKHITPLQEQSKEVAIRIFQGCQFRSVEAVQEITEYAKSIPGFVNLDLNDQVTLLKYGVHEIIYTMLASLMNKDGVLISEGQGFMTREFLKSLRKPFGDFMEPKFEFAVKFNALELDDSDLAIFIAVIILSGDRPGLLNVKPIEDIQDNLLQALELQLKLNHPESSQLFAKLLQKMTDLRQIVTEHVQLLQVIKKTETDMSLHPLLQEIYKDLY
Sequence of Peroxisome proliferator-activated receptor gamma/Nuclear receptor coactivator 1 (Q15788 whole entry, further chain): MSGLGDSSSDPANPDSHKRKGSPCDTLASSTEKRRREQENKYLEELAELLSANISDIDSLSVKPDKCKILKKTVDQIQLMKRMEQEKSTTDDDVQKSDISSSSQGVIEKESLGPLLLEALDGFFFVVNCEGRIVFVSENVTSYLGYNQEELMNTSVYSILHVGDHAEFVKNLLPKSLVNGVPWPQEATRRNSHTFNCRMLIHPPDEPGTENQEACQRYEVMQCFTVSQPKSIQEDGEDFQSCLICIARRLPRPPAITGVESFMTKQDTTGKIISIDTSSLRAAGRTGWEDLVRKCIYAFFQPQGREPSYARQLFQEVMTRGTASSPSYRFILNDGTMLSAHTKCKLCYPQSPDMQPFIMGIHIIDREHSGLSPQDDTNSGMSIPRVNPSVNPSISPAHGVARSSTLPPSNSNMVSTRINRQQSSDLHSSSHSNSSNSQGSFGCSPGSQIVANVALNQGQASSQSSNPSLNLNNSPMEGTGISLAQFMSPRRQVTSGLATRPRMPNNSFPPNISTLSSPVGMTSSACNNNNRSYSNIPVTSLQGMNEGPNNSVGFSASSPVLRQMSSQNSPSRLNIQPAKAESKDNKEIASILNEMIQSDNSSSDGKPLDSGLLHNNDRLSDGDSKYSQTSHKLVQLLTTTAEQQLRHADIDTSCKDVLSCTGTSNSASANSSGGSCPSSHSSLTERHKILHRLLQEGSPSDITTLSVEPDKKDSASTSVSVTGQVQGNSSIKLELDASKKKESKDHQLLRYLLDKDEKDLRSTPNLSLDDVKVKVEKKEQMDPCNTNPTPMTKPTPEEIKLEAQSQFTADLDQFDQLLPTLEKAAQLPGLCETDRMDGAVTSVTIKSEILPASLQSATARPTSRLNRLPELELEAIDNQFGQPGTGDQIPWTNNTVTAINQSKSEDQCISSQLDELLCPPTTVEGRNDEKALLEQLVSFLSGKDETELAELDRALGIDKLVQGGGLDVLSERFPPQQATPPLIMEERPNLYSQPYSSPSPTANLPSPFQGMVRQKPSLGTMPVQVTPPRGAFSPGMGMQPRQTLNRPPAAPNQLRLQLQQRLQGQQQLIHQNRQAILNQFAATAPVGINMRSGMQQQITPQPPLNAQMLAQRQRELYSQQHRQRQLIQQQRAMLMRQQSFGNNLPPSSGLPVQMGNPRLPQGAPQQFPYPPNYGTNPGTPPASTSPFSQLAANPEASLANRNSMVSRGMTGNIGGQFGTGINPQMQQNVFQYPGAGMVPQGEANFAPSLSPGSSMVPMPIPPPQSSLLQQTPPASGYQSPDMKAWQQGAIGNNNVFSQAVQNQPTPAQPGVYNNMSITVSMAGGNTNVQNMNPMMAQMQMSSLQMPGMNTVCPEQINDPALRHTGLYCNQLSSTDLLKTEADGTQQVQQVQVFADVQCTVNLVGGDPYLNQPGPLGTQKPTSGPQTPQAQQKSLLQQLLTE
Sequence of Peroxisome proliferator-activated receptor gamma/Nuclear receptor coactivator 3 (P37231 whole entry): as the sequence (P37231 whole entry) above
Sequence of Peroxisome proliferator-activated receptor gamma/Nuclear receptor coactivator 3 (Q9Y6Q9 whole entry, further chain): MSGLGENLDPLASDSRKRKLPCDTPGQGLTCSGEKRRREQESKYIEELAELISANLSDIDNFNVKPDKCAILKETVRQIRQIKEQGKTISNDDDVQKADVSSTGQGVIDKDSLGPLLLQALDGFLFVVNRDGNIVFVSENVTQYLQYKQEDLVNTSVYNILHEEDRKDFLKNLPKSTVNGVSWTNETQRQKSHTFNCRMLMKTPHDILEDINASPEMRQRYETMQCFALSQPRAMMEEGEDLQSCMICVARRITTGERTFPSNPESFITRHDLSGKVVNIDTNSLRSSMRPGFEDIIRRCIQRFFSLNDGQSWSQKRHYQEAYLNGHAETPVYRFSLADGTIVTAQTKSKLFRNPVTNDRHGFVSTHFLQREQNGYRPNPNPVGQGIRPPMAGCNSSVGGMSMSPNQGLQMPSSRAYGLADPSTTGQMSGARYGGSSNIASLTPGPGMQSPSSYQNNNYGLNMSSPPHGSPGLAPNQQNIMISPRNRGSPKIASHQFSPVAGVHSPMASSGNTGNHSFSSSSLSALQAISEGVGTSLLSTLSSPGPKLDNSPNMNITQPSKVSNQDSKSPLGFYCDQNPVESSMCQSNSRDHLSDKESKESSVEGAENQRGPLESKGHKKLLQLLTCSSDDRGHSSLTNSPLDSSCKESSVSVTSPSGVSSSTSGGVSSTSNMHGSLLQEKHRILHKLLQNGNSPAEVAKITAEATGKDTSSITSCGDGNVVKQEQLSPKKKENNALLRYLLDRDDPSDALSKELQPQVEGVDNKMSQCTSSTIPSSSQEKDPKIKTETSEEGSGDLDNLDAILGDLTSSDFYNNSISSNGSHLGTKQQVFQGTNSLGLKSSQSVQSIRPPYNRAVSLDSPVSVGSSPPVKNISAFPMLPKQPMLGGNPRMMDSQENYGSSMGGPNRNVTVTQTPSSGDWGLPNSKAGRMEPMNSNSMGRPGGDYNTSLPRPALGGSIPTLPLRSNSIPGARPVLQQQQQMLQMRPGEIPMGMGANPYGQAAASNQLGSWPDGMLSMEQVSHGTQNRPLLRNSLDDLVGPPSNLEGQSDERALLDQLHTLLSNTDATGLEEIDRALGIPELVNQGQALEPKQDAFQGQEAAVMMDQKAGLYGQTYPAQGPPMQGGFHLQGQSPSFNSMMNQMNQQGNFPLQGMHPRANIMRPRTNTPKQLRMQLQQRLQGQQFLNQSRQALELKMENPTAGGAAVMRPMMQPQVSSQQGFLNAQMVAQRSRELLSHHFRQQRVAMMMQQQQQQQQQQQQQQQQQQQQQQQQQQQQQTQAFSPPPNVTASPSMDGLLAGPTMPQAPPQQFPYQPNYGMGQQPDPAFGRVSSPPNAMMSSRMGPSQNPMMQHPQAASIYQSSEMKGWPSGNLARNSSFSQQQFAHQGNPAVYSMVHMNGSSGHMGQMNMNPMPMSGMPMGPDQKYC

In general, EC50 refers to the concentration that produces a half-maximal response. As for `c1ccc(CN2CCN(c3nc(-c4ccccc4)nc(-n4ccnc4)n3)CC2)cc1`, the EC50 in [1] is 9.94 µM (active); in [2], 2.31 µM (active); in [3] it was 11.9 µM (active); in assay [4], > 60 µM (not active).
Broadly, the IC50 is the point on the concentration scale where inhibition reaches its midpoint. As for `C=CCN1C(=O)/C(=c2\sc3nc(=O)c(Cc4ccccc4Cl)nn3c2=O)c2ccccc21`, the concentration for half-maximal inhibition (IC50) on Aminopeptidase N was 57.4 µM (active).
Still for that read-out and setting: in the case of `CC1(C)OC2OC(C(=O)N/N=C/c3cc(Br)ccc3O)C3OC(C)(C)OC3C2O1` (centres undefined) it was 51.7 µM (active).
On to `CC(OC(=O)c1ccc([N+](=O)[O-])o1)C(=O)NC1CCCCC1C` (centres undefined), for which the IC50 in assay [5] was > 100 µM (active).
`CCCCCCn1c(N2CCN(c3cccc(Cl)c3)CC2)nc2c1c(=O)[nH]c(=O)n2C`: the EC50 in assay [1] and in assay [3] was > 20 µM (not active) throughout. For the same compound, the IC50 on Protein skinhead-1 is > 100 µM (inactive).
Consider `CCCSc1nnc(NC(=O)c2nc(SC)ncc2Cl)s1`, for which the IC50 was 34.2 µM (active) on Leucine aminopeptidase and 109 µM (active) at Aminopeptidase N.
As to `CCOC(=O)c1c(C)[nH]c(C)c1C(=O)COC(=O)c1cccc(S(=O)(=O)NC)c1`, the IC50 in assay [5] was > 100 µM (active).
Broadly, the AC50 is the midpoint of the concentration-response curve, whichever way the signal moves. As to `Cc1cccc(N2CCN(C(=O)c3cc4n(n3)C(C(F)(F)F)CC(c3ccco3)N4)CC2)c1C` (centres undefined), the concentration giving a half-maximal response (EC50) is 3.02 µM (active) in [6]; 16.7 µM (active) on Streptokinase A; > 20 µM (not active) in assay [1]; > 20 µM (not active) in assay [3]; 29.1 µM (active) in the assay with Streptococcus. Further, in [7], the AC50 is 1.84 µM (active).
Take `Cc1ccc2c(c1)c1nnc(SCC(=O)Nc3cccc(Cl)c3C)nc1n2CC(=O)O`: the IC50 at Aminopeptidase N is 8.42 µM (active).
Regarding `O=C(CSc1ncnc2c1nnn2-c1ccc(F)cc1)NCc1ccco1`, the EC50 in assay [8], in [9] and in [10] was > 79.4 µM (not active) each time.
`COc1cccc(C2=NC(C)(C)NC(c3ccccc3O)C2)c1` (centres undefined): the EC50 was 11.7 µM (active) in [1] and 12.5 µM (active) in [3].
As to `Clc1ccc(-c2nnnn2-c2ccc(Cl)c(Cl)c2)cc1Cl`, the EC50 in assay [6] is 9.57 µM (active); at Streptokinase A it was 8.28 µM (active); in the assay on Streptococcus, > 150 µM (not active). The IC50 in [11] is < 0.4 µM (not active); in assay [5], > 100 µM (active). In assay [7], the AC50 was 3.97 µM (active).
As to `Cc1ccc(NC(=O)CN(C)C(=S)NC2CC2)cc1`, the EC50 in assay [8], in assay [9] and in [10] was > 79.4 µM (not active) throughout.
For `O=C(CCC1CCCN(C(=O)C2=CCCCC2)C1)N1CCN(c2ccccn2)CC1` (centres undefined), the EC50 in [8], in assay [9] and in [10] was > 79.4 µM (not active) each time.
On to `O=C1Nc2cc(Cl)ccc2C1(N1CCNCC1)C(F)(F)F` (centres undefined), for which the EC50 in [1] and in assay [3] was > 20 µM (not active) each time.
With `CCC1CCC2(CC1)NC(=O)N(CC(=O)Nc1ccc(OC)c(Cl)c1)C2=O` (centres undefined), the IC50 in assay [5] is > 100 µM (active).
Turning to `Cc1ccc2nsnc2c1S(=O)(=O)N(Cc1ccco1)Cc1cc2cccc(C)c2nc1O`, the IC50 with H9c2 was > 79 µM (inactive); in assay [5], > 100 µM (active).
For the compound `Nc1c(C(=O)NCCc2ccccc2)c2nc3ccccc3nc2n1CCN1CCOCC1`, the EC50 in [1] was 9.43 µM (active); in [3] it was 10.4 µM (active).
Turning to `O=C(Nc1nc(-c2ccc(S(=O)(=O)N3CCCCCC3)cc2)cs1)c1cccs1`, the half-maximal effective concentration (EC50) in assay [8] is 14.6 µM (not active); in assay [9], 16.5 µM (not active); in assay [10], 17.4 µM (not active); in assay [2], 2.33 µM (active); in [4], 6.61 µM (active).
